From patent US9885088B2, “Rapid phenotypic diagnosis of pathogens and drug resistance using transcriptional expression signatures” (priority 2010, dated 2018)
≈ marks a conversion by molar mass, not a printed value. Where two headings read alike, the source gives them in different places.

Experiments:
M. tuberculosis [1] = assay: microbe, parasite or virus in culture; format: cell-based
E. coli [2] = format: cell-based; conditions: wild-type E. coli K-12, 10-30 minute exposure
E. coli [3] = assay: microbe, parasite or virus in culture; format: cell-based
M. tuberculosis [4] = format: cell-based
M. tuberculosis [5] = conditions: M. tuberculosis after drug exposure, cited from earlier work; for Magnitude of induction/repression in prior microarray-based assays, RV1570 bioD: gene RV1570 (bioD); for Magnitude of induction/repression in prior microarray-based assays, RV1570 bioD / Magnitude of induction/repression in prior microarray-based assays, RV1606 hisI / Magnitude of induction/repression in prior microarray-based assays, Rv0984 moaB2 / Magnitude of induction/repression in prior microarray-based assays, Rv2296 haloalkane / Magnitude of induction/repression in prior microarray-based assays, Rv2364c era: purpose RIF; for Magnitude of induction/repression in prior microarray-based assays, RV1606 hisI: gene RV1606 (hisI); for Magnitude of induction/repression in prior microarray-based assays, RV3675: gene RV3675 (Rv3675); for Magnitude of induction/repression in prior microarray-based assays, RV3675 / Magnitude of induction/repression in prior microarray-based assays, Rv2245 kasA / Magnitude of induction/repression in prior microarray-based assays, Rv2247 accD6 / Magnitude of induction/repression in prior microarray-based assays, Rv2846c efpA / Magnitude of induction/repression in prior microarray-based assays, Rv3801c fadD32: purpose INH; for Magnitude of induction/repression in prior microarray-based assays, Rv0055 rpsR: gene Rv0055 (rpsR); for Magnitude of induction/repression in prior microarray-based assays, Rv0055 rpsR / Magnitude of induction/repression in prior microarray-based assays, Rv1317c alkA / Magnitude of induction/repression in prior microarray-based assays, Rv2737c recA / Magnitude of induction/repression in prior microarray-based assays, Rv2790c ltp1 / Magnitude of induction/repression in prior microarray-based assays, Rv3296 lhr: purpose FQ; for Magnitude of induction/repression in prior microarray-based assays, Rv0667 rpoB: gene Rv0667 (rpoB); for Magnitude of induction/repression in prior microarray-based assays, Rv0667 rpoB / Magnitude of induction/repression in prior microarray-based assays, Rv1980c mpt64 / Magnitude of induction/repression in prior microarray-based assays, Rv2703 sigA / Magnitude of induction/repression in prior microarray-based assays, Rv3583c: purpose control; for Magnitude of induction/repression in prior microarray-based assays, Rv0813c CHP: gene Rv0813c (CHP); for Magnitude of induction/repression in prior microarray-based assays, Rv0813c CHP / Magnitude of induction/repression in prior microarray-based assays, Rv1511 gmdA / Magnitude of induction/repression in prior microarray-based assays, Rv1608c bcpB / Magnitude of induction/repression in prior microarray-based assays, Rv1832 gcvB / Magnitude of induction/repression in prior microarray-based assays, Rv3417c groEL: purpose SM; for Magnitude of induction/repression in prior microarray-based assays, Rv0984 moaB2: gene Rv0984 (moaB2); for Magnitude of induction/repression in prior microarray-based assays, Rv1317c alkA: gene Rv1317c (alkA); for Magnitude of induction/repression in prior microarray-based assays, Rv1511 gmdA: gene Rv1511 (gmdA); for Magnitude of induction/repression in prior microarray-based assays, Rv1608c bcpB: gene Rv1608c (bcpB); for Magnitude of induction/repression in prior microarray-based assays, Rv1832 gcvB: gene Rv1832 (gcvB); for Magnitude of induction/repression in prior microarray-based assays, Rv1980c mpt64: gene Rv1980c (mpt64); for Magnitude of induction/repression in prior microarray-based assays, Rv2245 kasA: gene Rv2245 (kasA); for Magnitude of induction/repression in prior microarray-based assays, Rv2247 accD6: gene Rv2247 (accD6); for Magnitude of induction/repression in prior microarray-based assays, Rv2296 haloalkane: gene Rv2296 (haloalkane); for Magnitude of induction/repression in prior microarray-based assays, Rv2364c era: gene Rv2364c (era); for Magnitude of induction/repression in prior microarray-based assays, Rv2703 sigA: gene Rv2703 (sigA); for Magnitude of induction/repression in prior microarray-based assays, Rv2737c recA: gene Rv2737c (recA); for Magnitude of induction/repression in prior microarray-based assays, Rv2790c ltp1: gene Rv2790c (ltp1); for Magnitude of induction/repression in prior microarray-based assays, Rv2846c efpA: gene Rv2846c (efpA); for Magnitude of induction/repression in prior microarray-based assays, Rv3296 lhr: gene Rv3296 (lhr); for Magnitude of induction/repression in prior microarray-based assays, Rv3417c groEL: gene Rv3417c (groEL); for Magnitude of induction/repression in prior microarray-based assays, Rv3583c: gene Rv3583c; for Magnitude of induction/repression in prior microarray-based assays, Rv3801c fadD32: gene Rv3801c (fadD32)
[6] = E. coli clinical isolate CIEC9955
[7] = Mycobacterium tuberculosis, H37RV

O=C(O)c1cn(C2CC2)c2cc(N3CCNCC3)c(F)cc2c1=O [Ciprofloxacin]
MIC (M. tuberculosis [1]): 16 µg/mL (≈ 48.3 µM)

CC1(C)S[C@@H]2[C@H](NC(=O)[C@H](N)c3ccccc3)C(=O)N2[C@H]1C(=O)O [Ampicillin]
changes in transcript levels (drug-susceptible expression signature) (E. coli [2]): expected changes in transcript levels | Sensitive (S) or Resistant (R) (E. coli [3]; [6]): R | Sensitive (S) or Resistant (R) (E. coli [3]; E. coli strain K12): S | MIC (E. coli [3]; Escherichia coli, E. coli clinical isolate CIEC0838, read-out: MIC): > 250 µg/mL | MIC (E. coli [3]; Escherichia coli, E. coli clinical isolate CIEC2219, read-out: MIC): > 250 µg/mL | MIC (E. coli [3]; Escherichia coli, E. coli clinical isolate CIEC9181, read-out: MIC): > 250 µg/mL | MIC (E. coli [3]; Escherichia coli, E. coli clinical isolate CIEC9955, read-out: MIC): > 250 µg/mL | MIC (E. coli [3]; Escherichia coli, E. coli strain DH5α, read-out: MIC): 8 µg/mL (≈ 22.9 µM) | MIC (E. coli [3]; Escherichia coli, E. coli strain J53, read-out: MIC): 4 µg/mL (≈ 11.4 µM) | MIC (E. coli [3]; Escherichia coli, E. coli strain K12, read-out: MIC): 4 µg/mL (≈ 11.4 µM)

CO[C@H]1/C=C/O[C@@]2(C)Oc3c(C)c(O)c4c(O)c(c(/C=N/N5CCN(C)CC5)c(O)c4c3C2=O)NC(=O)/C(C)=C\C=C\[C@H](C)[C@H](O)[C@@H](C)[C@@H](O)[C@@H](C)[C@H](OC(C)=O)[C@@H]1C [Rifampin]
genes with drug-dependent induction (M. tuberculosis [4]): bioD, hisI, era, and Rv2296

Gentamicin
changes in transcript levels (drug-susceptible expression signature) (E. coli [2]): expected changes in transcript levels | Sensitive (S) or Resistant (R) (E. coli [3]): S and R | MIC (E. coli [3]; E. coli clinical isolate CIEC1676): 8 µg/mL | MIC (E. coli [3]; E. coli clinical isolate CIEC1801): 8 µg/mL | MIC (E. coli [3]; E. coli clinical isolate CIEC2219): 125 µg/mL | MIC (E. coli [3]; E. coli clinical isolate CIEC4940): >250 µg/mL | MIC (E. coli [3]; E. coli clinical isolate CIEC9181): >250 µg/mL | MIC (E. coli [3]; [6]): 16 µg/mL | MIC (E. coli [3]; E. coli strain K12): 8 µg/mL

NNC(=O)c1ccncc1 [Isoniazid]
genes with drug-dependent induction (M. tuberculosis [4]): kasA, fadD32, accD6, efpA, and Rv3675.1 | MIC (M. tuberculosis [1]; Mycobacterium tuberculosis, BAA812): 0.4 µg/mL (≈ 2.92 µM) | MIC (M. tuberculosis [1]; [7]): 0.05 µg/mL (≈ 0.365 µM)

[H]/N=C(/N)N[C@H]1[C@H](O)[C@@H](O)[C@H](O[C@@H]2O[C@@H](C)[C@](O)(C=O)[C@H]2O[C@@H]2O[C@@H](CO)[C@H](O)[C@@H](O)[C@@H]2NC)[C@@H](N/C(N)=N\[H])[C@@H]1O [Streptomycin]
Magnitude of induction/repression in prior microarray-based assays, RV1570 bioD (M. tuberculosis [5]): −0.3 | Magnitude of induction/repression in prior microarray-based assays, RV1606 hisI (M. tuberculosis [5]): −0.4 | Magnitude of induction/repression in prior microarray-based assays, RV3675 (M. tuberculosis [5]): 0.0 | Magnitude of induction/repression in prior microarray-based assays, Rv0055 rpsR (M. tuberculosis [5]): 1.7 | Magnitude of induction/repression in prior microarray-based assays, Rv0667 rpoB (M. tuberculosis [5]): 1.4 | Magnitude of induction/repression in prior microarray-based assays, Rv0813c CHP (M. tuberculosis [5]): 3.8 | Magnitude of induction/repression in prior microarray-based assays, Rv0984 moaB2 (M. tuberculosis [5]): −1.1 | Magnitude of induction/repression in prior microarray-based assays, Rv1317c alkA (M. tuberculosis [5]): 0.4 | Magnitude of induction/repression in prior microarray-based assays, Rv1511 gmdA (M. tuberculosis [5]): 1.6 | Magnitude of induction/repression in prior microarray-based assays, Rv1608c bcpB (M. tuberculosis [5]): 2.2 | Magnitude of induction/repression in prior microarray-based assays, Rv1832 gcvB (M. tuberculosis [5]): 1.3 | Magnitude of induction/repression in prior microarray-based assays, Rv1980c mpt64 (M. tuberculosis [5]): 0.4 | Magnitude of induction/repression in prior microarray-based assays, Rv2245 kasA (M. tuberculosis [5]): −1.9 | Magnitude of induction/repression in prior microarray-based assays, Rv2247 accD6 (M. tuberculosis [5]): −0.8 | Magnitude of induction/repression in prior microarray-based assays, Rv2296 haloalkane (M. tuberculosis [5]): 0.1 | Magnitude of induction/repression in prior microarray-based assays, Rv2364c era (M. tuberculosis [5]): −0.6 | Magnitude of induction/repression in prior microarray-based assays, Rv2703 sigA (M. tuberculosis [5]): 0.4 | Magnitude of induction/repression in prior microarray-based assays, Rv2737c recA (M. tuberculosis [5]): −0.1 | Magnitude of induction/repression in prior microarray-based assays, Rv2790c ltp1 (M. tuberculosis [5]): −1.1 | Magnitude of induction/repression in prior microarray-based assays, Rv2846c efpA (M. tuberculosis [5]): −0.7 | Magnitude of induction/repression in prior microarray-based assays, Rv3296 lhr (M. tuberculosis [5]): 0.1 | Magnitude of induction/repression in prior microarray-based assays, Rv3417c groEL (M. tuberculosis [5]): 1.6 | Magnitude of induction/repression in prior microarray-based assays, Rv3583c (M. tuberculosis [5]): 1.0 | Magnitude of induction/repression in prior microarray-based assays, Rv3801c fadD32 (M. tuberculosis [5]): 0.8 | genes with drug-dependent induction (M. tuberculosis [4]): CHP, bcpB, gcvB, and groEL | MIC (M. tuberculosis [1]; [7]): 1 µg/mL (≈ 1.72 µM)

CO[C@H]1/C=C/O[C@@]2(C)Oc3c(C)c(O)c4c(O)c(c(/C=N/N5CCN(C)CC5)c(O)c4c3C2=O)NC(=O)/C(C)=C\C=C\[C@H](C)[C@H](O)[C@@H](C)[C@@H](O)[C@@H](C)[C@H](OC(C)=O)[C@@H]1C [RIF]
Magnitude of induction/repression in prior microarray-based assays, RV1570 bioD (M. tuberculosis [5]): 1.2 | Magnitude of induction/repression in prior microarray-based assays, RV1606 hisI (M. tuberculosis [5]): 1.5 | Magnitude of induction/repression in prior microarray-based assays, RV3675 (M. tuberculosis [5]): 0.0 | Magnitude of induction/repression in prior microarray-based assays, Rv0055 rpsR (M. tuberculosis [5]): −0.9 | Magnitude of induction/repression in prior microarray-based assays, Rv0667 rpoB (M. tuberculosis [5]): 0.1 | Magnitude of induction/repression in prior microarray-based assays, Rv0813c CHP (M. tuberculosis [5]): 0.3 | Magnitude of induction/repression in prior microarray-based assays, Rv0984 moaB2 (M. tuberculosis [5]): 1.7 | Magnitude of induction/repression in prior microarray-based assays, Rv1317c alkA (M. tuberculosis [5]): 0.5 | Magnitude of induction/repression in prior microarray-based assays, Rv1511 gmdA (M. tuberculosis [5]): −0.3 | Magnitude of induction/repression in prior microarray-based assays, Rv1608c bcpB (M. tuberculosis [5]): 0.3 | Magnitude of induction/repression in prior microarray-based assays, Rv1832 gcvB (M. tuberculosis [5]): −0.4 | Magnitude of induction/repression in prior microarray-based assays, Rv1980c mpt64 (M. tuberculosis [5]): −1.2 | Magnitude of induction/repression in prior microarray-based assays, Rv2245 kasA (M. tuberculosis [5]): −1.0 | Magnitude of induction/repression in prior microarray-based assays, Rv2247 accD6 (M. tuberculosis [5]): −0.8 | Magnitude of induction/repression in prior microarray-based assays, Rv2296 haloalkane (M. tuberculosis [5]): 1.2 | Magnitude of induction/repression in prior microarray-based assays, Rv2364c era (M. tuberculosis [5]): 1.4 | Magnitude of induction/repression in prior microarray-based assays, Rv2703 sigA (M. tuberculosis [5]): −1.4 | Magnitude of induction/repression in prior microarray-based assays, Rv2737c recA (M. tuberculosis [5]): −0.6 | Magnitude of induction/repression in prior microarray-based assays, Rv2790c ltp1 (M. tuberculosis [5]): −0.7 | Magnitude of induction/repression in prior microarray-based assays, Rv2846c efpA (M. tuberculosis [5]): −0.9 | Magnitude of induction/repression in prior microarray-based assays, Rv3296 lhr (M. tuberculosis [5]): 0.2 | Magnitude of induction/repression in prior microarray-based assays, Rv3417c groEL (M. tuberculosis [5]): −0.9 | Magnitude of induction/repression in prior microarray-based assays, Rv3583c (M. tuberculosis [5]): −1.8 | Magnitude of induction/repression in prior microarray-based assays, Rv3801c fadD32 (M. tuberculosis [5]): −0.6
